Assay [1] concerns NCI-H1876 cells. As to the kind of experiment: Cell growth inhibition, SCLC cell line NCI-H1876 (cell count, day 10). Type of assay: cell-based. The conditions noted are these: 240 h; NCI-H1876, day 10, cell count. From the text:
(§1) Among other things, provided technologies are useful for treating various diseases, disorders, or conditions. For example, in some embodiments, provided technologies are useful for treating cancer as confirmed in the present Example. […] In some embodiments, provided technologies can inhibit cell proliferation. In some embodiments, the present disclosure provides technologies for assessing various technologies, e.g., compounds, compositions, or methods. Among other things, the present Example provides technologies, e.g., cell growth inhibition assay, for assessing various technologies. […] In some embodiments, the following cell growth inhibition methods are utilized to assess provided technologies.
SCLC: SCLC cell lines NCI-H1048 and NCI-H1876 were cultured in DMEM F12 media with 5% FBS, 1% Penicillin/Streptomycin and HITES supplement (Hydrocortisone, Insulin, Transferrin, Estradiol and Sodium Selenite). NCI-H1048 cells were plated at 10,000 cells/well of a 24-well plate and NCI-H1876 cells were plated at 20,000 cells/well of a 96-well plate. Compound and media were replenished every two days out to day 11 and 10 respectively. Cells were then trypsinized and counted using either hemocytometer or an automated Countess cell counter.

For assay [2], the system named is LASCPC-01 cells. Put plainly: Cell growth inhibition, neuroendocrine prostate cancer line LASCPC-01 (Cell Titer Glo, day 7). Type of assay: cell-based.
Source text: as §1
Neuroendocrine prostate cancer: Neuroendocrine prostate cancer line LASCPC-01 cells were cultured in DMEM F12 media with 5% FBS, 1% Penicillin/Streptomycin and HITES supplement (Hydrocortisone, Insulin, Transferrin, Estradiol and Sodium Selenite). Cells were plated at 1,425 cells/well of a 96 well plate. Compound and media were replenished every two days and at day 7 cell viability was assayed using Cell Titer Glo following manufacturer's instructions.
In some assessments, for cell growth inhibition, cells, e.g., MOLM13, NCI-H1048, and LASCPC-01 cells, were counted using a hemocytometer or automated cell counting in triplicates. In some assessments, proliferation in NEPC organoids as measured with Cell Titer Glo reagent (Promega). Growth inhibition was determined relative to vehicle control.
For orientation: In ATP-based viability assays light output follows the ATP content of the culture.

Assay [3] deals with histone acetylation (e.g., AcH3K9). As to the kind of experiment: Histone H3K9 acetylation (AcH3K9), Western Blot, NCI-H1048 cells. Type of assay: cell-based, human. The conditions noted are these: FIG. 1. The method, then:
In some embodiments, an assessment is performed using cells. In some embodiments, cells were treated with various compounds before assessing KAT2A and/or KAT2B levels, histone (e.g., H3K9) acetylation levels, cell states, growth, etc.
Western Blot: In some assessments, MOLM13, NCI-H1048, LASCPC-01 and NEPC organoid cells were treated with compounds at certain concentrations for certain periods of time, and cell pellets were lysed by adding 1-part 4×laemmli Sample buffer (e.g., Bio-Rad Catalog #1610747) along with Mercaptoethanol (e.g., Bio-Rad Catalog #1610710) according to manufacturer's instructions, and 1-part RIPA buffer with 2×protease and phosphatase inhibitor. The samples were sonicated 30% amplitude, 35 seconds on and 35 seconds off for 1 cycle and boiled at 95° C. for 5 minutes. 30-35 μL of samples were loaded on a 4-15% Criterion™ TGX Stain-Free™ Protein Gel (Bio-rad, 5678084). In some assessments, NCI-H1048 flash frozen tumor pieces were resuspended in RIPA buffer and homogenized on TissueLyser II with steel beads at 30 Hz for 3 minutes. Samples were then centrifuged at […] at 4° C. for 15 minutes. BCA protein determination was performed and samples normalized for 1.95 ug/uL. 19.5 uL were loaded and run on similar gels as cell pellets. […]

Assay [4] relates to small cell lung cancer cells, e.g., NCI-H1048 cells. Put plainly: Differentiation GSEA signatures from RNA-Seq, NCI-H1048. Type of assay: cell-based, human. The conditions noted are these: NCI-H1048, FIG. 1. Here is the method:
(§2) In some embodiments, GSEA signatures are utilized for assessing cell states, differentiation, etc. In some assessments, differentiation GSEA signatures, e.g., from RNA-Seq was performed. A useful protocol is described herein as an example. In some assessments, LASCPC-01 cells, NEPC organoid cell pellets, or NCI-H1048 tumor pieces were flash frozen upon harvest and stored at −80° C. RNA was isolated, mRNA library was prepared (poly A enrichment) and sequencing was run. Reads were aligned to reference v38 using Kallis to generate gene count matrices for each sample. The gene count matrix was the input to the ML pipelines that generate normal atlas scores and cell state classification. It was also input to differential expression analysis using Edger in R. The output of differential expression was input to gene set enrichment analysis (GSEA) to define gene sets that were most shifted by treatment. For defining specific epithelial differentiation endpoints to generate the solid tumor differentiation box plots, cell state gene sets resulting from GSEA are consolidated by cell state to define a consensus set of genes that define epithelial differentiation. Other suitable technologies may also utilized in accordance with the present disclosure.

Assay [5] has as its system neuroendocrine prostate cancer cells, e.g., LASCPC-01 cells. As to the kind of experiment: Differentiation GSEA signatures from RNA-Seq, LASCPC-01. The conditions noted are these: FIG. 3. Type of assay: cell-based. The method, then: as §2
Assay [6] concerns the target KAT2B (Homo sapiens, UniProt Q92831). Put plainly: Western blot of KAT2B level in acute myeloid leukemia MOLM-13 cells, 48 h. Type of assay: cell-based. Particulars: FIG. 2 (A). On the set-up: degrader, Western blot. The method, then:
FIG. 2. Provided compounds can provide various activities. (A): Provided technologies can reduce KAT2A and KAT2B levels and histone acetylation levels. […] Cell count data after 8 days of treatment with compound 22 relative to DMSO control are presented as examples to confirm inhibition. […] (C): Provided technologies can modulate cell states and induce differentiation. […] EC50=0.3 nM.
For orientation: A western blot detects proteins with antibodies after separation by electrophoresis.

What is called GI50 is the concentration giving 50% growth inhibition.

Where two headings read alike, the source gives them in different places.

KAT2B, sequence (Q92831 whole entry): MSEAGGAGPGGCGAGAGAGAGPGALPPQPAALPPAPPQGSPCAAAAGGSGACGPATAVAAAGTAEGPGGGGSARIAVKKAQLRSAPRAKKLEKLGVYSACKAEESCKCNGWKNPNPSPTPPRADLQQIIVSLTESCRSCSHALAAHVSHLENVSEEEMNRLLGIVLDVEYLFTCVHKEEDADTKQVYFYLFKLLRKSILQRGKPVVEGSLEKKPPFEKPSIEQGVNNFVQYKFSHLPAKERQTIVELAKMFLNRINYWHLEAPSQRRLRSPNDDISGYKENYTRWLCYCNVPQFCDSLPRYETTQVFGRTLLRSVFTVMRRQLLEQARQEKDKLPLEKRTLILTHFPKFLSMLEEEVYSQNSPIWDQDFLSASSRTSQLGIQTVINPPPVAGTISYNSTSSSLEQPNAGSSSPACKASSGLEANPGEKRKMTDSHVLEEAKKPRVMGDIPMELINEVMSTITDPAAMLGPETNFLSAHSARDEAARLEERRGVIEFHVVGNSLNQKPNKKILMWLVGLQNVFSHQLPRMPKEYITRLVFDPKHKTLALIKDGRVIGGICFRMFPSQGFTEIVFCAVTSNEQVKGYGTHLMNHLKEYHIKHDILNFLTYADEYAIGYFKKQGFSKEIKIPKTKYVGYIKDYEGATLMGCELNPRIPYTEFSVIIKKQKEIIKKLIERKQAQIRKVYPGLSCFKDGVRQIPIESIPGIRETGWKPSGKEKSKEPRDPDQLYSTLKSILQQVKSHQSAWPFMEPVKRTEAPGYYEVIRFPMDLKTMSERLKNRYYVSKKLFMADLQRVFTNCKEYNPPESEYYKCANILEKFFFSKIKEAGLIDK

On to `CN1C[C@H](Nc2cnn(C)c(=O)c2Br)C[C@H](c2ccc(C(=O)N3CCC(CN4CCN(c5ccc6c(c5)CN(C5CCC(=O)NC5=O)C6=O)CC4)CC3)cc2)C1` (stereo partly drawn) [Compound 22, 3-(5-(4-((1-(4-((3R,5R)-5-((5-bromo-1-methyl-6-oxo-1,6-dihydropyridazin-4-yl)amino)-1-methylpiperidin-3-yl)benzoyl)piperidin-4-yl)methyl)piperazin-1-yl)-1-oxoisoindolin-2-yl)piperidine-2,6-dione], for which the GI50 in assay [1] came out at 1 nM; in assay [2] (168 h, LASCPC-01, day 7, Cell Titer Glo, read-out: LASCPC GI50), 5.3 nM; in assay [2] (LASCPC-01, comparison table with Ref-1, read-out: Growth GI50), 5 nM. For the same molecule, the “cell growth in vitro” value in assay [2] (LASCPC-01 cells, FIG. 3) is “inhibit cell growth in vitro and in vivo”. Besides, the “histone acetylation (e.g., AcH3K9) levels” value in assay [3] is listed as “reduce histone acetylation (e.g., AcH3K9) levels”. In addition, the induction of differentiation entry in assay [4] is “induce differentiation (e.g., epithelial, neural, and/or microglial)”; in assay [5] it was “induce differentiation (e.g., epithelial, neural, and/or microglial)”. Also, the “reduction of KAT2B level” value in assay [6] is listed as “confirm such reduction”.

These data come from patent US20260306640A1, “TECHNOLOGIES TARGETING CELL STATES” (Auron Therapeutics, Inc., priority 2023, published 2026).
